Experimental data: PubChem BioAssay (NCI)
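These data come from cells grown in 96-well plates and exposed to compound for 48 hours at five concentrations. The concentration for full growth arrest is given as TGI.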

What was measured:
Assay in all cases: NCI tumour cell line growth inhibition, 48 h
NCI-H226 lung = test system: NCI-H226 lung
SF-539 CNS = test system: SF-539 CNS
NCI-H522 lung = test system: NCI-H522 lung
M14 melanoma = test system: M14 melanoma
UACC-62 melanoma = test system: UACC-62 melanoma
UO-31 renal = test system: UO-31 renal
HOP-18 NSCLC = test system: HOP-18 NSCLC
MOLT-4 leukemia = test system: MOLT-4 leukemia
NCI-H460 lung = test system: NCI-H460 lung
RXF-631 renal = test system: RXF-631 renal
K-562 leukemia = test system: K-562 leukemia
HCT-116 colon = test system: HCT-116 colon
DMS 114 small cell lung = test system: DMS 114 small cell lung
XF 498 CNS = test system: XF 498 CNS
HCT-15 colon = test system: HCT-15 colon
LXFL 529 NSCLC = test system: LXFL 529 NSCLC
HT29 colon = test system: HT29 colon
KM20L2 colon = test system: KM20L2 colon
KM12 colon = test system: KM12 colon
IGROV1 ovarian = test system: IGROV1 ovarian
A498 renal = test system: A498 renal
EKVX NSCLC = test system: EKVX NSCLC
OVCAR-3 ovarian = test system: OVCAR-3 ovarian
SNB-75 CNS = test system: SNB-75 CNS
SF-268 CNS = test system: SF-268 CNS
SK-MEL-5 melanoma = test system: SK-MEL-5 melanoma
MALME-3M melanoma = test system: MALME-3M melanoma
SNB-78 CNS = test system: SNB-78 CNS
SN12C renal = test system: SN12C renal
HOP-62 NSCLC = test system: HOP-62 NSCLC
U251 CNS = test system: U251 CNS
ACHN renal = test system: ACHN renal
A549 NSCLC = test system: A549 NSCLC
COLO 205 colon = test system: COLO 205 colon
LOX IMVI melanoma = test system: LOX IMVI melanoma
SF-295 CNS = test system: SF-295 CNS
DLD-1 colon = test system: DLD-1 colon
NCI-H23 lung = test system: NCI-H23 lung
SNB-19 CNS = test system: SNB-19 CNS
HCC-2998 colon = test system: HCC-2998 colon
SK-OV-3 ovarian = test system: SK-OV-3 ovarian
OVCAR-5 ovarian = test system: OVCAR-5 ovarian
M19-MEL melanoma = test system: M19-MEL melanoma
RXF 393 renal = test system: RXF 393 renal
786-0 renal = test system: 786-0 renal
TK-10 renal = test system: TK-10 renal
OVCAR-8 ovarian = test system: OVCAR-8 ovarian
HOP-92 NSCLC = test system: HOP-92 NSCLC
CCRF-CEM leukemia = test system: CCRF-CEM leukemia
UACC-257 melanoma = test system: UACC-257 melanoma
SK-MEL-28 melanoma = test system: SK-MEL-28 melanoma
SK-MEL-2 melanoma = test system: SK-MEL-2 melanoma
DMS 273 small cell lung = test system: DMS 273 small cell lung
OVCAR-4 ovarian = test system: OVCAR-4 ovarian
HL-60(TB) leukemia = test system: HL-60(TB) leukemia
RPMI-8226 leukemia = test system: RPMI-8226 leukemia
MCF7 breast = test system: MCF7 breast
NCI/ADR-RES ovarian = test system: NCI/ADR-RES ovarian
SW-620 colon = test system: SW-620 colon
P388 leukemia = test system: P388 leukemia
P388/ADR leukemia = test system: P388/ADR leukemia
CAKI-1 renal = test system: CAKI-1 renal
SR leukemia = test system: SR leukemia

O=C(CCc1nnc2s/c(=C\c3ccccc3[N+](=O)[O-])c(=O)n12)Nc1cc(Cl)c(Cl)cc1Cl
TGI (NCI-H226 lung): 40.6 µM
TGI (SF-539 CNS): 46 µM
TGI (NCI-H522 lung): > 100 µM
TGI (M14 melanoma): > 100 µM
TGI (UACC-62 melanoma): > 100 µM
TGI (UO-31 renal): 91.4 µM
TGI (HOP-18 NSCLC): 94.4 µM
TGI (MOLT-4 leukemia): 71.6 µM
TGI (NCI-H460 lung): 75.7 µM
TGI (RXF-631 renal): > 100 µM
TGI (K-562 leukemia): 72 µM
TGI (HCT-116 colon): 31.4 µM
TGI (DMS 114 small cell lung): > 100 µM
TGI (XF 498 CNS): 58 µM
TGI (HCT-15 colon): > 100 µM
TGI (LXFL 529 NSCLC): 53.8 µM
TGI (HT29 colon): > 100 µM
TGI (KM20L2 colon): > 100 µM
TGI (KM12 colon): 43.4 µM
TGI (IGROV1 ovarian): > 100 µM
TGI (A498 renal): 53.6 µM
TGI (EKVX NSCLC): > 100 µM
TGI (OVCAR-3 ovarian): 35.8 µM
TGI (SNB-75 CNS): 55.8 µM
TGI (SF-268 CNS): 78.1 µM
TGI (SK-MEL-5 melanoma): > 100 µM
TGI (MALME-3M melanoma): > 100 µM
TGI (SNB-78 CNS): > 100 µM
TGI (SN12C renal): 63.8 µM
TGI (HOP-62 NSCLC): 64.1 µM
TGI (U251 CNS): 30.8 µM
TGI (ACHN renal): > 100 µM
TGI (A549 NSCLC): > 100 µM
TGI (COLO 205 colon): > 100 µM
TGI (LOX IMVI melanoma): 46.9 µM
TGI (SF-295 CNS): 49.5 µM
TGI (DLD-1 colon): 66.6 µM
TGI (NCI-H23 lung): > 100 µM
TGI (SNB-19 CNS): 74.3 µM
TGI (HCC-2998 colon): > 100 µM
TGI (SK-OV-3 ovarian): > 100 µM
TGI (OVCAR-5 ovarian): > 100 µM
TGI (M19-MEL melanoma): > 100 µM
TGI (RXF 393 renal): 57.6 µM
TGI (786-0 renal): 31.3 µM
TGI (TK-10 renal): 87.9 µM
TGI (OVCAR-8 ovarian): 89.9 µM
TGI (HOP-92 NSCLC): 51.2 µM
TGI (CCRF-CEM leukemia): 82.6 µM
TGI (UACC-257 melanoma): > 100 µM
TGI (SK-MEL-28 melanoma): > 100 µM
TGI (SK-MEL-2 melanoma): > 100 µM
TGI (DMS 273 small cell lung): > 100 µM
TGI (OVCAR-4 ovarian): 34.6 µM

COC1=C(C)C(=O)C2=C(C1=O)[C@@H]1[C@@H]3Cc4c(OC(=O)CO)c(C)c(OC)c(O)c4[C@H](CNC(=O)C(C)=O)N3[C@@H](C#N)[C@H](C2)N1C
TGI (NCI-H226 lung): 0.834 µM
TGI (SF-539 CNS): 0.24 µM
TGI (NCI-H522 lung): < 0.0139 µM
TGI (UACC-62 melanoma): < 0.0368 µM
TGI (UO-31 renal): 0.362 µM
TGI (HOP-18 NSCLC): 0.0966 µM
TGI (MOLT-4 leukemia): 0.173 µM
TGI (NCI-H460 lung): 1.83 µM
TGI (K-562 leukemia): 7.77 µM
TGI (HCT-116 colon): 12.1 µM
TGI (DMS 114 small cell lung): < 0.01 µM
TGI (XF 498 CNS): < 0.01 µM
TGI (HT29 colon): 10.6 µM
TGI (KM20L2 colon): 0.686 µM
TGI (KM12 colon): 2.05 µM
TGI (HL-60(TB) leukemia): 2.75 µM
TGI (RPMI-8226 leukemia): 0.389 µM
TGI (OVCAR-3 ovarian): 0.0366 µM
TGI (SF-268 CNS): 0.208 µM
TGI (MCF7 breast): 13.9 µM
TGI (SK-MEL-5 melanoma): 0.0393 µM
TGI (MALME-3M melanoma): 0.351 µM
TGI (NCI/ADR-RES ovarian): 17.1 µM
TGI (SNB-78 CNS): 0.998 µM
TGI (SN12C renal): 10.8 µM
TGI (HOP-62 NSCLC): 1.16 µM
TGI (U251 CNS): 4.09 µM
TGI (A549 NSCLC): 49 µM
TGI (COLO 205 colon): < 0.0309 µM
TGI (LOX IMVI melanoma): < 0.01 µM
TGI (SF-295 CNS): 2.28 µM
TGI (NCI-H23 lung): < 0.0176 µM
TGI (HCC-2998 colon): 0.226 µM
TGI (SK-OV-3 ovarian): 28.6 µM
TGI (OVCAR-5 ovarian): 0.447 µM
TGI (M19-MEL melanoma): 0.0463 µM
TGI (RXF 393 renal): 0.0392 µM
TGI (SW-620 colon): 3.24 µM
TGI (OVCAR-8 ovarian): 0.684 µM
TGI (HOP-92 NSCLC): < 0.0258 µM
TGI (UACC-257 melanoma): 0.0364 µM
TGI (SK-MEL-28 melanoma): 1.2 µM
TGI (SK-MEL-2 melanoma): 0.0359 µM
TGI (DMS 273 small cell lung): 0.065 µM
TGI (P388 leukemia): 0.0205 µM
TGI (P388/ADR leukemia): 1.82 µM
TGI (CAKI-1 renal): 7.87 µM
TGI (OVCAR-4 ovarian): 0.484 µM

C[C@H](C(=O)C12CC3CC(CC(C3)C1)C2)[C@H](O)c1ccccc1
TGI (NCI-H226 lung): 36.5 µM
TGI (SF-539 CNS): 96.5 µM
TGI (NCI-H522 lung): 57.8 µM
TGI (M14 melanoma): > 100 µM
TGI (UACC-62 melanoma): > 100 µM
TGI (UO-31 renal): 73.5 µM
TGI (HOP-18 NSCLC): > 100 µM
TGI (MOLT-4 leukemia): > 100 µM
TGI (NCI-H460 lung): > 100 µM
TGI (RXF-631 renal): > 100 µM
TGI (K-562 leukemia): > 100 µM
TGI (HCT-116 colon): 32.3 µM
TGI (SR leukemia): 78.4 µM
TGI (XF 498 CNS): 67.7 µM
TGI (LXFL 529 NSCLC): > 100 µM
TGI (HT29 colon): 34.1 µM
TGI (KM20L2 colon): 43.9 µM
TGI (KM12 colon): 70.7 µM
TGI (IGROV1 ovarian): > 100 µM
TGI (HL-60(TB) leukemia): 58.1 µM
TGI (RPMI-8226 leukemia): > 100 µM
TGI (EKVX NSCLC): > 100 µM
TGI (OVCAR-3 ovarian): 63.3 µM
TGI (SNB-75 CNS): 75.9 µM
TGI (SF-268 CNS): 30.2 µM
TGI (SK-MEL-5 melanoma): 32 µM
TGI (SNB-78 CNS): > 100 µM
TGI (SN12C renal): 36.1 µM
TGI (ACHN renal): > 100 µM
TGI (A549 NSCLC): > 100 µM
TGI (COLO 205 colon): 28.3 µM
TGI (LOX IMVI melanoma): 32 µM
TGI (SF-295 CNS): > 100 µM
TGI (DLD-1 colon): > 100 µM
TGI (NCI-H23 lung): > 100 µM
TGI (SNB-19 CNS): > 100 µM
TGI (SK-OV-3 ovarian): > 100 µM
TGI (OVCAR-5 ovarian): 56.2 µM
TGI (RXF 393 renal): 48.3 µM
TGI (SW-620 colon): > 100 µM
TGI (786-0 renal): 55.7 µM
TGI (TK-10 renal): > 100 µM
TGI (OVCAR-8 ovarian): > 100 µM
TGI (HOP-92 NSCLC): 45.8 µM
TGI (CCRF-CEM leukemia): > 100 µM
TGI (UACC-257 melanoma): 78.4 µM
TGI (SK-MEL-28 melanoma): 31.4 µM
TGI (SK-MEL-2 melanoma): 38.8 µM
TGI (CAKI-1 renal): 91.2 µM
TGI (OVCAR-4 ovarian): > 100 µM
